Source: publication PMC9127750, “Structure-based design of CDC42 effector interaction inhibitors for the treatment of cancer” (Cell reports, 2022)
“And” between values parts separate entries of the source, which are not always exact repeats. Identical values can stand only once.

System: WM3248 melanoma cells, 486 antibodies
Test: Reverse phase protein arrays (RPPA)
Format: cell-based, Human
Excerpt: Pellets were snap frozen in liquid nitrogen and shipped to MD Anderson Cancer Center core RPPA facility for RPPA analysis (Table S5). Three biological replicates for each sample were generated.
Nomenclatures on the RPPA heatmaps: name_of_antibody.species_of_antibody.status_of_antibody. V - antibody validated; C - validation of antibody in progress; Q - antibody nonspecific; E – under evaluation; antibodies raised in M - mouse, G - goat, R - rabbit, or T - rat.

[1] = Norm_20: replicates 1-3 and Average, relative to 0
[2] = Norm_20, replicates 1-3 and Average, relative to Norm_0

CN(C)c1cccc(Nc2cc(-c3ccccc3)nc(C3CCNCC3)n2)c1 [ARN22089, N1,N1-dimethyl-N3-(6-phenyl-2-(piperidin-4-yl)pyrimidin-4-yl)benzene-1,3-diamine]
Shc_pY317.R.C normalized RPPA signal [1]: 0.757 and 1.584 and 1.301 and 1.214
Slfn11.G.C normalized RPPA signal [1]: 1.108 and 1.363 and 1.188
Smac.M.Q normalized RPPA signal [1]: 0.931 and 0.960 and 0.983 and 0.958
Smad1.R.V normalized RPPA signal [1]: 0.987 and 0.977 and 1.047 and 1.004
Smad3.R.V normalized RPPA signal [1]: 1.165 and 1.119 and 1.154
Smad4.R.V normalized RPPA signal [1]: 1.296 and 1.077 and 0.835
Snail.M.Q normalized RPPA signal [1]: 0.600 and 0.686 and 0.609 and 0.632
Sox2.R.V normalized RPPA signal [1]: 1.375 and 1.408 and 0.996 and 1.260
Sox17.R.V normalized RPPA signal [1]: 0.910 and 0.971 and 1.024 and 0.968
Src.M.V normalized RPPA signal [1]: 0.856 and 0.994 and 0.844 and 0.898
Src_pY416.R.V normalized RPPA signal [1]: 0.922 and 0.983 and 0.992
Src_pY527.R.V normalized RPPA signal [1]: 1.101 and 1.696 and 1.289
Stat1_pY701.R.V normalized RPPA signal [1]: 0.978 and 0.992 and 1.003
Stat3.R.C normalized RPPA signal [1]: 0.916 and 0.933 and 0.984 and 0.944
Stat3_pY705.R.C normalized RPPA signal [1]: 1.624 and 1.373 and 1.082 and 1.360
Stat5a.R.V normalized RPPA signal [1]: 0.918 and 1.001 and 1.032
Stathmin.1.R.V normalized RPPA signal [1]: 1.002 and 0.917 and 0.896 and 0.939
Syk.M.V normalized RPPA signal [1]: 0.729 and 0.896 and 0.950 and 0.859
Synaptophysin.R.C normalized RPPA signal [1]: 1.010 and 0.835 and 0.914 and 0.920
TAZ.R.V normalized RPPA signal [1]: 0.593 and 0.609 and 0.746
TEAD.R.C normalized RPPA signal [1]: 0.753 and 0.847 and 1.189 and 0.929
TFAM.R.V normalized RPPA signal [1]: 1.017 and 0.908 and 0.988
TFRC.R.V normalized RPPA signal [1]: 0.954 and 0.936 and 0.905
TIGAR.R.V normalized RPPA signal [1]: 1.016 and 1.029 (2×)
TRAP1.M.V normalized RPPA signal [1]: 0.880 and 0.858 and 0.987 and 0.908
TRIM24.R.C normalized RPPA signal [1]: 0.971 and 1.220 and 0.935
TRIM25.R.C normalized RPPA signal [1]: 0.761 and 0.842 and 1.250
TRIP13.R.V normalized RPPA signal [1]: 0.937 and 1.026 and 0.990 and 0.984
Tau.M.C normalized RPPA signal [1]: 1.361 and 0.904 and 1.112
Transglutaminase.M.V normalized RPPA signal [1]: 0.939 and 1.702 and 2.431 and 1.691
A.Raf.R.V RPPA signal, normalized [2]: 1.150 and 0.931 and 1.016
A.Raf_pS299.R.C RPPA signal, normalized [2]: 0.948 and 1.046 and 0.962 and 0.985
ACC1.R.C RPPA signal, normalized [2]: 0.841 and 0.807 and 0.895
ACC_pS79.R.V RPPA signal, normalized [2]: 1.085 and 0.894 and 1.442 and 1.140
ACLY_pS455.R.V RPPA signal, normalized [2]: 0.968 and 1.117 and 1.143 and 1.076
ACSL1.R.V RPPA signal, normalized [2]: 0.997 and 1.027 and 1.096
ACVRL1.R.C RPPA signal, normalized [2]: 0.959 and 0.966 and 0.988
ADAR1.M.V RPPA signal, normalized [2]: 1.103 and 1.393 and 0.980 and 1.159
ALKBH5.R.V RPPA signal, normalized [2]: 1.265 and 1.161 and 1.050 and 1.159
AMPK.a2_pS345.R.V RPPA signal, normalized [2]: 0.925 and 1.020 and 1.006
AMPKa.R.C RPPA signal, normalized [2]: 0.976 and 1.132 and 1.050
AMPKa_pT172.R.C RPPA signal, normalized [2]: 1.665 and 1.252 and 2.191 and 1.703
AR.R.V RPPA signal, normalized [2]: 1.167 and 0.791 and 1.202 and 1.053
ARID1A.R.C RPPA signal, normalized [2]: 2.135 and 2.023 and 0.945 and 1.701
ASNS.R.V RPPA signal, normalized [2]: 1.259 and 1.098 (2×)
ATM.R.V RPPA signal, normalized [2]: 0.728 and 0.823 and 1.123 and 0.891
ATM_pS1981.R.V RPPA signal, normalized [2]: 0.946 and 1.124 and 1.011 and 1.027
ATP5A.M.C RPPA signal, normalized [2]: 1.004 and 1.426 and 2.191 and 1.541
ATP5H.R.V RPPA signal, normalized [2]: 1.249 and 1.351 and 1.098 and 1.232
ATR.R.V RPPA signal, normalized [2]: 0.925 and 0.998 and 0.989
ATRX.R.C RPPA signal, normalized [2]: 0.884 and 1.433 and 1.198 and 1.172
ATR_pS428.R.C RPPA signal, normalized [2]: 0.919 and 0.961 and 1.020
AceCS1.R.V RPPA signal, normalized [2]: 1.098 and 1.011 and 1.293 and 1.134
Akt1.R.V RPPA signal, normalized [2]: 0.716 and 0.687 and 1.263 and 0.889
Akt1_pS473.R.V RPPA signal, normalized [2]: 0.845 and 0.816 and 0.918
Akt2.R.V RPPA signal, normalized [2]: 0.702 and 0.698 and 0.824
Akt2_pS474.R.C RPPA signal, normalized [2]: 0.820 and 1.141 and 0.958
Akt.R.V RPPA signal, normalized [2]: 0.842 and 0.873 and 1.113 and 0.943
Akt_pS473.R.V RPPA signal, normalized [2]: 0.693 and 1.281 and 1.006
Akt_pT308.R.V RPPA signal, normalized [2]: 1.208 and 0.954 and 1.057
Ambra1_pS52.R.C RPPA signal, normalized [2]: 0.983 and 1.063 and 0.981 and 1.009
Annexin.I.M.V RPPA signal, normalized [2]: 0.955 and 0.906 and 1.304 and 1.055
Annexin.VII.M.V RPPA signal, normalized [2]: 0.988 and 0.859 and 0.972
Atg3.R.V RPPA signal, normalized [2]: 1.054 and 0.860 and 1.003 and 0.972
Atg4B.R.C RPPA signal, normalized [2]: 0.929 and 1.167 and 0.972 and 1.023
Atg5.R.C RPPA signal, normalized [2]: 1.021 and 0.787 and 1.106 and 0.971
Atg7.R.V RPPA signal, normalized [2]: 0.883 and 0.847 and 0.979 and 0.903
Aurora.A.R.C RPPA signal, normalized [2]: 1.019 and 1.110 and 1.013
Aurora.ABC_pT288_pT232_pT198.R.C RPPA signal, normalized [2]: 0.769 and 0.934
Aurora.B.R.V RPPA signal, normalized [2]: 1.525 and 1.546 and 1.302 and 1.458
Axl.R.V RPPA signal, normalized [2]: 0.924 and 0.799 and 1.335 and 1.019
B7.H3.R.C RPPA signal, normalized [2]: 1.111 and 0.745 and 0.965 and 0.940
B7.H4.R.C RPPA signal, normalized [2]: 0.904 and 0.914 and 0.952
B.Raf.R.C RPPA signal, normalized [2]: 0.818 and 0.836 and 1.274 and 0.976
B.Raf_pS445.R.V RPPA signal, normalized [2]: 0.809 and 0.807 and 1.065 and 0.893
BAP1.M.V RPPA signal, normalized [2]: 0.987 and 0.925 and 1.001
BCL2A1.R.V RPPA signal, normalized [2]: 0.937 and 1.262 and 1.127
BMK1.Erk5_pT218_Y220.R.V RPPA signal, normalized [2]: 0.876 and 0.918 and 0.861 and 0.885
BRCA1.M.C RPPA signal, normalized [2]: 1.226 and 1.030 and 1.116
BRD4.R.V RPPA signal, normalized [2]: 1.775 and 1.486 and 0.963 and 1.408
Bad_pS112.R.V RPPA signal, normalized [2]: 1.169
Bak.R.C RPPA signal, normalized [2]: 1.030 and 0.930 and 1.021 and 0.994
